According to article PMC6934184, “Selective DNA-PKcs inhibition extends the therapeutic index of localized radiotherapy and chemotherapy” (The Journal of Clinical Investigation, 2019):

Biological target: T1, RIPK3 (Homo sapiens, UniProt Q9Y572)
T1 construct: purchased Thermo Fisher Scientific (Life Technologies) SelectScreen
Assay: SelectScreen LanthaScreen
Type: binding
Details: read-out: % displacement
Outline: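 NU5455 was profiled across the SelectScreen Broad panel of kinase activity and binding assays. Z'LYTE reactions such as CSF1R ran at apparent Km ATP, while the Adapta CAMK1 assay used ATP listed as 10. Values are given as percent.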

T1 sequence (Q9Y572 whole entry): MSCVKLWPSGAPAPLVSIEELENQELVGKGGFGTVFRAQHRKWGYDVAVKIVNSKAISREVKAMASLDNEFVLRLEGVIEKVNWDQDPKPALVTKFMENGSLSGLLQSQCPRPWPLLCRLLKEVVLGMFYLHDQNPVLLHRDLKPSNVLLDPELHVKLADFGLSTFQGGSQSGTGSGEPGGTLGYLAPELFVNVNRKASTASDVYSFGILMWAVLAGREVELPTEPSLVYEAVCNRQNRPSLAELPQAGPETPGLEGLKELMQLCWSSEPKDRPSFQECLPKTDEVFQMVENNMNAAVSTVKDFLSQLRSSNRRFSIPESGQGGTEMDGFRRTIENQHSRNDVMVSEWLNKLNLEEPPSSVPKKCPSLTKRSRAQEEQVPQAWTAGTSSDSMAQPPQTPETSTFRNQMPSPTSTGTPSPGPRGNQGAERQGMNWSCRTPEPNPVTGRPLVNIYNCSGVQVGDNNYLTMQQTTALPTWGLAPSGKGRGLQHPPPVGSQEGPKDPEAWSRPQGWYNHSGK

Molecule `CN(C(=O)CN1CCOCC1)c1ccc2sc3c(-c4cccc5c(=O)cc(N6CC7CCC(C6)O7)oc45)cccc3c2c1` [NU5455] has an inhibition at 1 µM of -2.3%.
